Test results as given in patent US10564167B2, “Method for detecting cells” (FUNDACIÓ INSTITUT DE CIÈNCIES FOTÒNIQUES, priority 2014, dated 2020).

Key:
Assay type in all cases: cell-based
[1] = tested on: human fibroblast nuclei (hFb); assay: Multi-color STORM imaging of H2B and H1 co-localization in hFbs and TSA-hFbs; conditions: TSA-hFbs (hFbs 61±11%, p=0.028)
Experimental: (§1) Human fibroblasts (hFb) (BJ, Skin Fibroblast, American Type Culture Collection, ATCC® CRL-2522™) were cultured in DMEM supplemented with 10% FBS, 1× Non-essential AA, 1× GlutaMax and 1× penicillin/streptomycin. Human fibroblasts were treated with 300 nM of TSA (TricostatinA, Sigma-Aldrich) solution (TSA-hFbs) in complete growth medium for 24 hours before imaging experiments. Human fibroblasts expressing the Histone H2B-SNAP fusion protein were obtained after drug selection of nucleofected cells with the pSNAP-H2B Plasmid (N91795, New England BioLabs) using the Amaxa Human Dermal Fibroblast Nucleofector Kit (Lonza, VPD-1001).
(§2) For the imaging experiments, cells were plated on 8-well Lab-tek 1 coverglass chamber (Nunc) at a seeding density of 20,000-50,000 cells per well, fixed and permeabilized with Methanol-Ethanol (1:1) solution at −20° C. for 6 min or fixed with PFA 4% in PBS for 10 min and then permeabilized with 0.1% v/v Triton X-100 (SIGMA) in PBS for 10 min at room temperature. […]
(§3) STORM imaging was carried out with a commercial STORM microscope system from Nikon Instruments (NSTORM). Laser light at 647 nm was used for exciting Alexa Fluor 647 (Invitrogen) and switching it to the dark state, and laser light at 405 nm was used for reactivating the Alexa Fluor 647 (Invitrogen) fluorescence via an activator dye (Alexa Fluor 405)—facilitated manner. […]

[2] = tested on: H3 acetylation in human fibroblast cells; assay: STORM imaging of H3 acetylation in human fibroblasts before and after TSA; conditions: hFbs, 300 nM TSA 24 hours, STORM images
Experimental: as §1, §2, §3

[3] = tested on: human fibroblast nuclei (hFb); assay: STORM super-resolution imaging of H2B nanodomains / nucleosome clutches in TSA-treated human fibroblasts
Experimental: as §1
as §2, with “temperature. As the distribution of H2B was independent of the fixation and permeabilization protocols, Methanol-Ethanol (1:1) was preferred to minimize the handling of the sample.” for “temperature.”
For all H2B quantification experiments, primary rabbit polyclonal anti-H2B (ab1790) and the secondary donkey anti-rabbit labeled with Alexa Fluor 405-Alexa Fluor 647 (Invitrogen) pair dyes were used after in vitro characterization using mononucleosome, 12- and 24-nucleosome array labeling.
as §3

`CC(/C=C/C(=O)NO)=C\[C@@H](C)C(=O)c1ccc(N(C)C)cc1` [TSA, Trichostatin A] was tested, and the “percentage of H2B co-localized with H1” value [1] was 42±6%, the “H3 acetylation after TSA treatment” value [2] was “large increase in H3 acetylation” and the “distributions of number of localizations per nanodomain, nanodomain areas and nanodomain nnds vs hFbs” value ([3]; TSA-hFbs compared to hFbs, p<10^-3) was “shifted to lower values”. For the same molecule, the “H2B nanodomain density in the nuclear periphery compared to the nuclear interior (enhancement)” value ([3]; TSA-hFbs, 300 nM TSA 24 hours (untreated hFbs ~25% higher)) was about 10% and the “median number of nucleosomes per clutch” value ([3]; hFbs treated with 300 nM TSA for 24 hours, converted from H2B localizations by in vitro calibration curve (untreated hFbs ~8)) was about 2 nucleosomes.
